# Where two headings read alike, the source gives them in different places.
# Legend:
# [1] = tested on: S. aureus ATCC 29213; test: Inhibition zone, paper disk/agar diffusion; format: cell-based; note: test concentration or dose not given here
# Excerpt: (§1) The antimicrobial activity performed at the bacteriology laboratory, Botany and Microbiology Department, Faculty of Science, Al-Azhar University, Cairo, Egypt. The inhibition zone (IZ) of the tested derivatives expressed as the diameter (mm) according to the agar plate diffusion method.
# [2] = tested on: F. oxysporum (RCMB 008002); test: Inhibition zone, paper disk/agar diffusion; format: cell-based; conditions: Na = no activity; note: test concentration or dose not given here
# Excerpt: as §1
# [3] = tested on: P. aeruginosa ATCC 27853; test: Inhibition zone, paper disk/agar diffusion; format: cell-based
# Excerpt: as §1
# [4] = tested on: E. coli ATCC 25922; test: Inhibition zone, paper disk/agar diffusion; format: cell-based
# Excerpt: as §1
# [5] = tested on: C. albicans (ATCC 10231); test: Inhibition zone, paper disk/agar diffusion; format: cell-based; conditions: Na = no activity
# Excerpt: as §1
# [6] = tested on: S. typhi ATCC 6539; test: Inhibition zone, paper disk/agar diffusion; format: cell-based
# Excerpt: as §1
# [7] = tested on: E. faecalis ATCC 29212; test: Inhibition zone, paper disk/agar diffusion; format: cell-based; note: test concentration or dose not given here
# Excerpt: as §1
# [8] = tested on: B. subtilis ATCC 6633; test: Inhibition zone, paper disk/agar diffusion; format: cell-based; note: test concentration or dose not given here
# Excerpt: as §1
# [9] = target: E. coli DHFR (dihydrofolate reductase) (Escherichia coli, UniProt P0ABQ4); test: In vitro DHFR enzymatic assay; format: biochemical
# [10] = tested on: S. aureus ATCC 43300; test: Inhibition zone against multidrug-resistant bacteria; note: test concentration or dose not given here; format: cell-based; conditions: MDRB S. aureus ATCC 43300
# Excerpt: (§2) Norfloxacin was used as a positive control for the multidrug resistance study.
# as §1
# [11] = tested on: S. aureus ATCC 33591; test: as above; format: cell-based; conditions: MDRB S. aureus ATCC 33591
# Excerpt: as §2, §1
# [12] = tested on: E. coli ATCC BAA-196; test: as above; format: cell-based; conditions: MDRB E. coli ATCC BAA-196
# Excerpt: as §2, §1
# [13] = tested on: P. aeruginosa ATCC BAA-2111; test: as above; format: cell-based; conditions: MDRB P. aeruginosa ATCC BAA-2111
# Excerpt: as §2, §1
# [14] = tested on: P. aeruginosa ATCC 27853; test: MIC and MBC determination; format: cell-based; conditions: Pseudomonas aeruginosa, ATCC27853
# [15] = tested on: S. aureus ATCC 43300; test: MIC and MBC against multidrug-resistant strains; format: cell-based; conditions: Staphylococcus aureus, ATCC43300, S. aureus ATCC 43300
# Excerpt: as §2
# (§3) The experiment was repeating for three-times.
# [16] = tested on: S. aureus ATCC 33591; test: MIC and MBC against multidrug-resistant strains; format: cell-based; conditions: Staphylococcus aureus, ATCC33591, S. aureus ATCC 33591
# Excerpt: as §2, §3
# [17] = tested on: E. coli ATCC BAA-196; test: MIC and MBC against multidrug-resistant strains; format: cell-based; conditions: Escherichia coli, ATCCBAA196, E. coli ATCC BAA-196
# Excerpt: as §2, §3
# [18] = tested on: P. aeruginosa ATCC BAA-2111; test: MIC and MBC against multidrug-resistant strains; format: cell-based; conditions: P. aeruginosa ATCC BAA-2111
# Excerpt: as §2, §3
# [19] = target: S. aureus DNA gyrase (Staphylococcus aureus, UniProt P0A0K8+P20831); test: In vitro DNA gyrase supercoiling enzymatic assay; format: biochemical
# [20] = tested on: E. coli ATCC 25922; test: MIC and MBC determination; format: cell-based
# [21] = tested on: C. albicans (ATCC 10231); test: MIC and MFC determination; format: cell-based
# [22] = tested on: Salmonella typhi (S. typhi ATCC 6539); test: microbe, parasite or virus in culture; format: cell-based; conditions: Salmonella enterica
# [23] = tested on: F. oxysporum (RCMB 008002); test: MIC and MFC determination; format: cell-based
# [24] = tested on: MDRB strains; test: MIC and MBC, ranges over the MDRB panel; format: cell-based; conditions: four MDRB strains
# Excerpt: as §2, §3
# [25] = tested on: B. subtilis ATCC 6633; test: MIC and MBC determination; format: cell-based
# [26] = tested on: E. faecalis ATCC 29212; test: MIC and MBC determination; format: cell-based
# [27] = tested on: S. aureus ATCC 29213; test: MIC and MBC determination; format: cell-based
# [28] = tested on: Gram-positive and Gram-negative bacteria; format: cell-based
# [29] = Gram-negative: E. coli, P. aeruginosa, S. typhi
# [30] = Enterococcus faecalis, ATCC29212
# [31] = Staphylococcus aureus, ATCC29213
# Throughout, for Mean Diameter of Inhibition Zone: test concentration or dose not given here.
# E. coli DHFR (dihydrofolate reductase), sequence (P0ABQ4 whole entry): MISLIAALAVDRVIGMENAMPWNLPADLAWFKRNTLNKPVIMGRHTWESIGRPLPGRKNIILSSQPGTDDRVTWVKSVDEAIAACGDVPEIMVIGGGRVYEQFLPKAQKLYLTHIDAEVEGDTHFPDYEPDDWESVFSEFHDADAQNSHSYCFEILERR
# S. aureus DNA gyrase, sequence (P20831 whole entry): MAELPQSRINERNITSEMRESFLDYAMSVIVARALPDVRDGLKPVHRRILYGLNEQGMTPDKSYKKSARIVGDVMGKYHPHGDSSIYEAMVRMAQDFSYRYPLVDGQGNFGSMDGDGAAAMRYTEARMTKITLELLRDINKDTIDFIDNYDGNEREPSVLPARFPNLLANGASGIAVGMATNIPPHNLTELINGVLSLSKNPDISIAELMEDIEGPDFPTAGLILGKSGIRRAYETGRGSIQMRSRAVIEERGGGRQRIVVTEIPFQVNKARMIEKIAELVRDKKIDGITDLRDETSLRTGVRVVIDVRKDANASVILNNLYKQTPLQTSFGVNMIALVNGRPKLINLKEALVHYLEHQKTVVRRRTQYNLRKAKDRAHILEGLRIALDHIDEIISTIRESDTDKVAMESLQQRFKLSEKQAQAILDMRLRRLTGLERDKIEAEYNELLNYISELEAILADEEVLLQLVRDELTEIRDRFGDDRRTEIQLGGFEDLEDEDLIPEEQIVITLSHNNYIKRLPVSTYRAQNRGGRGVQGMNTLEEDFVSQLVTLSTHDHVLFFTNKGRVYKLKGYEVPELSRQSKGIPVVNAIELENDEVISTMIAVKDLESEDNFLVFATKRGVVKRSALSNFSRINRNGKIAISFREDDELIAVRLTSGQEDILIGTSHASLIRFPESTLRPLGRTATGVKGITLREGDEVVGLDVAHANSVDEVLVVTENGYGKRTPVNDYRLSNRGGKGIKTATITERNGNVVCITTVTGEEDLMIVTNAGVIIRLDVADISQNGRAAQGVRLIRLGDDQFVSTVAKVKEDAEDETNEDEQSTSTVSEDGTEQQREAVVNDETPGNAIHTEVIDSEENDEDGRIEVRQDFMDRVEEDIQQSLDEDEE
# S. aureus DNA gyrase, sequence (P0A0K8 whole entry): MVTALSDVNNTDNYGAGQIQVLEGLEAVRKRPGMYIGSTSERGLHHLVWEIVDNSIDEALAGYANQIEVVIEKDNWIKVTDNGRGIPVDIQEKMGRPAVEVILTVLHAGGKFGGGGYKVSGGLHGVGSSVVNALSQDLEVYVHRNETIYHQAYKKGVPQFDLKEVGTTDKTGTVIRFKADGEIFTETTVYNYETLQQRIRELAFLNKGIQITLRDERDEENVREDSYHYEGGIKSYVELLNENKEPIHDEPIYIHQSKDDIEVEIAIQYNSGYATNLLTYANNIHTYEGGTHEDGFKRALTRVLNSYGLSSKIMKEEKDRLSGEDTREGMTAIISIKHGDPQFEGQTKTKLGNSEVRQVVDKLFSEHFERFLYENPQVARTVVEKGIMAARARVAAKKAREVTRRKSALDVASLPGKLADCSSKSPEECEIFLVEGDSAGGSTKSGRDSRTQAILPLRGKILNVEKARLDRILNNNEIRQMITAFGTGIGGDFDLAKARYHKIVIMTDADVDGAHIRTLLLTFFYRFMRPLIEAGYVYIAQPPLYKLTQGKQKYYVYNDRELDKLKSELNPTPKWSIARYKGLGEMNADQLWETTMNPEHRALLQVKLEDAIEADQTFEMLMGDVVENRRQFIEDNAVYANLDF
smiles,measurement,setting,value
"N#Cc1c(-c2ccc(Cl)cc2)c(C#N)c(=O)n(-c2ccc(S(=O)(=O)NC(=N)N)cc2)c1N [Compound 3a, 4-(6-Amino-4-(4-chlorophenyl)-3,5-dicyano-2-oxopyridin-1(2H)-yl)-N-carbamimidoylbenzenesulfonamide]",Mean Diameter of the Inhibition Zone,"[1]; S. aureus, Na = no activity",25 ± 0.31 mm
same,Mean Diameter of the Inhibition Zone,[2],21 ± 0.30 mm
same,Mean Diameter of the Inhibition Zone,"[3]; P. aeruginosa, Na = no activity",20 ± 0.15 mm
same,Mean Diameter of the Inhibition Zone,"[4]; E. coli, Na = no activity",24 ± 0.20 mm
same,Mean Diameter of the Inhibition Zone,[5],22 ± 0.35 mm
same,Mean Diameter of the Inhibition Zone,"[6]; S. typhi, Na = no activity",18 ± 0.16 mm
same,Mean Diameter of the Inhibition Zone,"[7]; E. faecalis, Na = no activity",21 ± 0.11 mm
same,Mean Diameter of the Inhibition Zone,"[8]; B. subtilis, Na = no activity",31 ± 0.40 mm
same,IC50,[9],5.44 ± 0.95 µM
same,fold relative to trimethoprim,[9]; E. coli DHFR IC50,0.94 fold
same,Mean Diameter of Inhibition Zone,[10],25 ± 0.4 mm
same,Mean Diameter of Inhibition Zone,[11],23 ± 0.47 mm
same,Mean Diameter of Inhibition Zone,[12],22 ± 0.23 mm
same,Mean Diameter of Inhibition Zone,[13],24 ± 0.22 mm
same,MBC,"[14]; P. aeruginosa, read-out: MBC",66.8 ± 0.87 µM
same,MIC,"[14]; P. aeruginosa, read-out: MIC",33.4 ± 0.35 µM
same,MBC,[15]; read-out: MBC,16.3 ± 0.36 µM
same,MIC,[15]; read-out: MIC,8.33 ± 0.29 µM
same,MBC,[16]; read-out: MBC,23.7 ± 0.28 µM
same,MIC,[16]; read-out: MIC,11.8 ± 0.24 µM
same,MBC,[17]; read-out: MBC,33.4 ± 0.84 µM
same,MIC,[17]; read-out: MIC,16.7 ± 0.41 µM
same,MBC,[18],14.23 ± 0.65 µM
same,MIC,[18],9.48 ± 0.54 µM
same,MBC,"[18]; Pseudomonas aeruginosa, ATCCBAA2111, read-out: MBC",14.2 µM
same,MIC,"[18]; Pseudomonas aeruginosa, ATCCBAA2111, read-out: MIC",9.48 µM
same,IC50,[19],22 ± 1.35 µM
same,fold potency relative to ciprofloxacin,[19]; S. aureus DNA gyrase IC50,~1.19 fold
same,MBC,[20]; E. coli,30.02 ± 0.52 µM
same,MIC,[20]; E. coli,16.69 ± 0.84 µM
same,MBC,"[20]; Escherichia coli, ATCC25922, E. coli, read-out: MBC",30 µM
same,MIC,"[20]; Escherichia coli, ATCC25922, E. coli, read-out: MIC",16.7 µM
same,MFC,[21],26.69 ± 0.54 µM
same,MFC/MIC,[21],<2
same,MIC,[21],16.69 ± 0.75 µM
same,MFC,"[21]; Candida albicans, ATCC10231, read-out: MFC",26.7 µM
same,MIC,"[21]; Candida albicans, ATCC10231, read-out: MIC",16.7 µM
same,MBC,"[22]; Salmonella typhi, read-out: MBC",22.6 ± 0.32 µM
same,MIC,"[22]; Salmonella typhi, read-out: MIC",11.9 ± 0.62 µM
same,MFC,[23],56.74 ± 0.98 µM
same,MFC/MIC,[23],<2
same,MIC,[23],33.38 ± 0.74 µM
same,MFC,"[23]; Fusarium oxysporum, RCMB008002, read-out: MFC",56.7 µM
same,MIC,"[23]; Fusarium oxysporum, RCMB008002, read-out: MIC",33.4 µM
same,MBC range,[24],14.23 to 33.38 µM
same,MIC range,[24],8.33 to 16.69 µM
same,MBC,[25]; B. subtilis,19.6 ± 0.65 µM
same,MIC,[25]; B. subtilis,9.61 ± 1.65 µM
same,MBC,"[25]; Bacillus subtilis, ATCC6633, B. subtilis, read-out: MBC",19.6 µM
same,MIC,"[25]; Bacillus subtilis, ATCC6633, B. subtilis, read-out: MIC",9.61 µM
same,MBC,[26]; E. faecalis,15.83 ± 0.47 µM
same,MIC,[26]; E. faecalis,8.33 ± 0.36 µM
same,MBC,"[26]; Enterococcus faecalis, ATCC29212, E. faecalis, read-out: MBC",15.8 µM
same,MIC,"[26]; Enterococcus faecalis, ATCC29212, E. faecalis, read-out: MIC",8.33 µM
same,MBC,[27]; S. aureus,33.38 ± 0.65 µM
same,MIC,[27]; S. aureus,16.69 ± 0.87 µM
same,MBC,"[27]; Staphylococcus aureus, ATCC29213, S. aureus, read-out: MBC",33.4 µM
same,MIC,"[27]; Staphylococcus aureus, ATCC29213, S. aureus, read-out: MIC",16.7 µM
"CN(C)[C@@H]1C(O)=C(C(N)=O)C(=O)[C@@]2(O)C(O)=C3C(=O)c4c(O)cccc4[C@@](C)(O)[C@H]3C[C@@H]12 [Tetracycline, tetracycline, reference compound]",Mean Diameter of the Inhibition Zone,[1],25 ± 0.11 mm
same,Mean Diameter of the Inhibition Zone,[3],20 ± 0.5 mm
same,Mean Diameter of the Inhibition Zone,[4],23 ± 0.20 mm
same,Mean Diameter of the Inhibition Zone,[6],21 ± 0.55 mm
same,Mean Diameter of the Inhibition Zone,[7],22 ± 0.25 mm
same,Mean Diameter of the Inhibition Zone,[8],25 ± 0.22 mm
same,MBC range,[28]; [29],42.16 to 196.89 µM
same,MIC range,[28]; [29],35.14 to 140.6 µM
same,MBC range,[28]; Gram-positive bacteria,91.40 to 210.9 µM
same,MIC range,[28]; Gram-positive bacteria,70.31 to 140.63 µM
same,MBC,[14],197 ± 2.36 µM
same,MIC,[14],141 ± 2.85 µM
same,MBC,[20],42.16 ± 0.92 µM
same,MIC,[20],35.14 ± 0.87 µM
same,MBC,"[20]; Escherichia coli, ATCC25922",42.2 µM
same,MIC,"[20]; Escherichia coli, ATCC25922",35.1 µM
same,MBC,[22],98.44 ± 0.87 µM
same,MIC,[22],70.3 ± 1.06 µM
same,MBC,[25],91.40 ± 2.89 µM
same,MIC,[25],70.31 ± 2.65 µM
same,MBC,"[25]; Bacillus subtilis, ATCC6633",91.4 µM
same,MIC,"[25]; Bacillus subtilis, ATCC6633",70.3 µM
same,MBC,[26],210.9 ± 1.78 µM
same,MIC,[26],140.6 ± 1.98 µM
same,MBC,[26]; [30],211 µM
same,MIC,[26]; [30],141 µM
same,MBC,[27]; [31],197 ± 3.54 µM
same,MIC,[27]; [31],141 ± 3.21 µM

# Source: article PMC7915026, “Sulfaguanidine Hybrid with Some New Pyridine-2-One Derivatives: Design, Synthesis, and Antimicrobial Activity against Multidrug-Resistant Bacteria as Dual DNA Gyrase and DHFR Inhibitors” (Antibiotics, 2021)
